# From patent US20080113926A1, “9A-Carbamoyl-Y-Aminopropyl- And 9A-Thiocabamoyl-Y-Aminopropyl-Azalides With Antimalarial Activity” (priority 2005, published 2008)
# Key:
# Type in all cases: cell-based
# [1] = test system: Plasmodium falciparum clone CDC/Indochina III (W-2); assay: In vitro antimalarial [3H]-hypoxanthine incorporation serial dilution assay, W2; settings: P. falciparum W2, parasites exposed for 72 hours; for IC50: Plasmodium falciparum, W2, 72 h
# Text: (§1) The in vitro screens for intrinsic antimalarial activity were based on modifications of the procedures described by Desjardins R E, Canfield C J, Haynes J D, Chulay J D. (Quantitative assessment of antimalarial activity in vitro by a semiautomated microdilution technique. Antimicrob Agents Chemother. 1979 December; 16(6):710-8), Chulay J D, Haynes J D, Diggs C L. (Plasmodium falciparum: Assessment of in vitro growth by [3H]hypoxanthine incorporation. Exp. Parasitol. 1983 55:138-146), and Milhous W K, Weatherly N F, Bowdre J H, Desjardins R E. (In vitro activities of and mechanisms of resistance to antifol antimalarial drugs. Antimicrob Agents Chemother. 1985 April; 27(4):525-30). The system was limited to the assessment of the intrinsic activity against the erythrocytic asexual life cycle (blood schizontocides). Two Plasmodium falciparum clones from CDC/Indochina III (W-2) and CDC/Sierra Leone I (D-6) (Oduola A M, Weatherly N F, Bowdre J H, Desjardins R E. Plasmodium falciparum: cloning by single-erythrocyte micromanipulation and heterogeneity in vitro. Exp Parasitol. 1988 66(1):86-95) were used for all assays. TM91C235, a multiple drug resistant isolate from Thailand, was used for the prescreening assay. W-2 is resistant to chloroquine, quinine, and pyrimethamine and susceptible to mefloquine. D-6 tends to be more resistant to mefloquine and susceptible to chloroquine, quinine, and pyrimethamine. All documents cited in this paragraph are incorporated by reference in their entirety.
# (§2) All parasites were maintained in continuous long term cultures in RPMI-1640 medium supplemented with 6% washed human A positive (A+) (erythrocytes, 25 mM Hepes, […], and 10% heat inactivated A+ human plasma or ALBUMAX® (lipid-rich bovine serum albumin; Invitrogen, Carlsbad, Calif.). All cultures and assays were conducted at 37° C. under an atmosphere of 5% CO2 and 5% O2, with a balance of N2.
# (§3) The prescreening assay uses TM91C235 diluted at a 0.4% parasitemia in a 1% hematocrit in folic acid free and p-aminobenzoic acid free media RPMI-1640 and ALBUMAX®. One mg of the compound is typically dissolved in 100 μl of dimethyl sulfoxide (DMSO). The compound is further diluted in culture medium (FF) with ALBUMAX® for the first initial starting concentration. The rest of the stock drug solution was kept at −70° C. The isolate was preexposed, in duplicate, at three concentrations (25,000 ng/ml, 2,500 ng/ml, and 25 ng/ml) of the test compound for 48 hr in a 96-well microtiter plate (MTP) using the BIOMEK® 2000 automated laboratory workstation. Each MTP contains chloroquine as control to assess the relative activity of the compound and to monitor the response of TM91C235.
# (§4) After the preincubation, [^3H]-hypoxanthine was added to each well of the MTP. (The assay relies on the incorporation of radiolabeled hypoxanthine by the parasites, which indicates reproduction, and inhibition of isotope incorporation was attributed to activity of known or candidate antimalarial drugs). After 72 hr of total incubation time, the MTP were frozen to lyse the erythrocytes and parasites. The parasite DNA was recovered by harvesting the lysate onto glass-fiber filter plates using a Packard FilterMate™ Cell Harvester. The radioactivity was counted on a Packard TopCount™ microplate scintillation counter. The results were recorded as counts per minutes (CPM) per well at each drug concentration divided by the arithmetic mean of the CPM from the three untreated infection parasite control wells.
# (§5) The serial dilution assay was conducted using the same assay conditions and stock solution of the compound used for the preliminary screen, described above. Both the D-6 and the W-2 clones were used. The compounds were diluted two-fold over 11 different concentration ranges with a starting concentration that was based on the preliminary screen. […]
# [2] = test system: Plasmodium falciparum TM91C235; assay: In vitro antimalarial [3H]-hypoxanthine incorporation serial dilution assay, TM91C235; settings: P. falciparum TM91C235, parasites exposed for 72 hours; for IC50: Plasmodium falciparum
# [3] = test system: Plasmodium falciparum clone CDC/Sierra Leone I (D-6); assay: In vitro antimalarial [3H]-hypoxanthine incorporation serial dilution assay, D6; settings: P. falciparum D6, parasites exposed for 72 hours; for IC50: Plasmodium falciparum
# Text: as §1, §2, §3, §4, §5
IC50 [1] [µg/mL],IC50 [2] [µg/mL],IC50 [3] [µg/mL],IC50 W2 [1] [ng/mL],IC50 TM91C235 [2] [ng/mL],IC50 D6 [3] [ng/mL],SMILES
0.17,0.159,0.144,,,,CC[C@H]1OC(=O)[C@H](C)[C@@H](O[C@H]2C[C@@](C)(OC)[C@@H](O)[C@H](C)O2)[C@H](C)[C@@H](O[C@@H]2O[C@H](C)C[C@H](N(C)C)[C@H]2O)[C@](C)(O)C[C@@H](C)CN(CCCNC(=S)Nc2cccc3ccccc23)[C@H](C)[C@@H](O)[C@]1(C)O [Compound 9]
0.141,0.0832,0.145,,,,CC[C@H]1OC(=O)[C@H](C)[C@@H](O[C@H]2C[C@@](C)(OC)[C@@H](O)[C@H](C)O2)[C@H](C)[C@@H](O[C@@H]2O[C@H](C)C[C@H](N(C)C)[C@H]2O)[C@](C)(O)C[C@@H](C)CN(CCCNC(=O)Nc2ccc3ccccc3c2)[C@H](C)[C@@H](O)[C@]1(C)O [Compound 1]
0.298,0.143,0.156,,,,CC[C@H]1OC(=O)[C@H](C)[C@@H](O[C@H]2C[C@@](C)(OC)[C@@H](O)[C@H](C)O2)[C@H](C)[C@@H](O[C@@H]2O[C@H](C)C[C@H](N(C)C)[C@H]2O)[C@](C)(O)C[C@@H](C)CN(CCCN(CCC#N)C(=O)Nc2ccc3ccccc3c2)[C@H](C)[C@@H](O)[C@]1(C)O [Compound 7]
0.41,0.255,0.864,,,,CC[C@H]1OC(=O)[C@H](C)[C@@H](O)[C@H](C)[C@@H](O[C@@H]2O[C@H](C)C[C@H](N(C)C)[C@H]2O)[C@](C)(O)C[C@@H](C)CN(CCCNC(=S)NCCCc2ccccc2)[C@H](C)[C@@H](O)[C@]1(C)O [Compound 28]
0.471,0.508,> 0.797,,,,CC[C@H]1OC(=O)[C@H](C)[C@@H](O)[C@H](C)[C@@H](O[C@@H]2O[C@H](C)C[C@H](N(C)C)[C@H]2O)[C@](C)(O)C[C@@H](C)CN(CCCNC(=O)Nc2cccc3ccccc23)[C@H](C)[C@@H](O)[C@]1(C)O [Compound 30]
> 1.76,0.272,0.487,,,,CC[C@H]1OC(=O)[C@H](C)[C@@H](O[C@H]2C[C@@](C)(OC)[C@@H](O)[C@H](C)O2)[C@H](C)[C@@H](O[C@@H]2O[C@H](C)C[C@H](N(C)C)[C@H]2O)[C@](C)(O)C[C@@H](C)CN(CCCN(CCC#N)C(=O)Nc2cc(OC)c(OC)c(OC)c2)[C@H](C)[C@@H](O)[C@]1(C)O [Compound 16]
0.112,0.117,0.176,,,,CC[C@H]1OC(=O)[C@H](C)[C@@H](O[C@H]2C[C@@](C)(OC)[C@@H](O)[C@H](C)O2)[C@H](C)[C@@H](O[C@@H]2O[C@H](C)C[C@H](N(C)C)[C@H]2O)[C@](C)(O)C[C@@H](C)CN(CCCNC(=S)NCCCc2ccccc2)[C@H](C)[C@@H](O)[C@]1(C)O [Compound 3]
0.361,0.39,> 0.797,,,,CC[C@H]1OC(=O)[C@H](C)[C@@H](O)[C@H](C)[C@@H](O[C@@H]2O[C@H](C)C[C@H](N(C)C)[C@H]2O)[C@](C)(O)C[C@@H](C)CN(CCCN(CCC#N)C(=O)NC(C)c2cccc3ccccc23)[C@H](C)[C@@H](O)[C@]1(C)O (some centres unmarked) [Compound 26]
0.169,0.0732,0.091,,,,CC[C@H]1OC(=O)[C@H](C)[C@@H](O[C@H]2C[C@@](C)(OC)[C@@H](O)[C@H](C)O2)[C@H](C)[C@@H](O[C@@H]2O[C@H](C)C[C@H](N(C)C)[C@H]2O)[C@](C)(O)C[C@@H](C)CN(CCCN(CCC#N)C(=S)NCCc2ccccc2)[C@H](C)[C@@H](O)[C@]1(C)O [Compound 5]
,0.106,0.155,,,,CC[C@H]1OC(=O)[C@H](C)[C@@H](O)[C@H](C)[C@@H](O[C@@H]2O[C@H](C)C[C@H](N(C)C)[C@H]2O)[C@](C)(O)C[C@@H](C)CN(CCCN(CCC#N)C(=S)NCCCc2ccccc2)[C@H](C)[C@@H](O)[C@]1(C)O [Compound 32]
0.405,0.522,0.776,,,,CC[C@H]1OC(=O)[C@H](C)[C@@H](O[C@H]2C[C@@](C)(OC)[C@@H](O)[C@H](C)O2)[C@H](C)[C@@H](O[C@@H]2O[C@H](C)C[C@H](N(C)C)[C@H]2O)[C@](C)(O)C[C@@H](C)CN(CCCN(CCC#N)C(=O)NCc2ccccc2)[C@H](C)[C@@H](O)[C@]1(C)O [Compound 18]
0.246,0.118,0.292,,,,CC[C@H]1OC(=O)[C@H](C)[C@@H](O[C@H]2C[C@@](C)(OC)[C@@H](O)[C@H](C)O2)[C@H](C)[C@@H](O[C@@H]2O[C@H](C)C[C@H](N(C)C)[C@H]2O)[C@](C)(O)C[C@@H](C)CN(CCCNC(=O)NC(C)c2cccc3ccccc23)[C@H](C)[C@@H](O)[C@]1(C)O (some centres unmarked) [Compound 6]
0.467,0.312,0.716,,,,CC[C@H]1OC(=O)[C@H](C)[C@@H](O)[C@H](C)[C@@H](O[C@@H]2O[C@H](C)C[C@H](N(C)C)[C@H]2O)[C@](C)(O)C[C@@H](C)CN(CCCNC(=O)Nc2ccc3ccccc3c2)[C@H](C)[C@@H](O)[C@]1(C)O [Compound 27]
,,,1788.1,271.9,487.2,CC[C@H]1OC(=O)[C@H](C)[C@@H](O[C@H]2C[C@@](C)(OC)[C@@H](O)[C@H](C)O2)[C@H](C)[C@@H](O[C@@H]2O[C@H](C)C[C@H](N(C)C)[C@H]2O)[C@](C)(O)C[C@@H](C)CN(CCCN(CCC#N)C(=O)Nc2cc(OC)c(OC)c(OC)c2)[C@H](C)[C@@H](O)[C@]1(C)O [Compound 24]
,0.277,0.962,,,,CC[C@H]1OC(=O)[C@H](C)[C@@H](O)[C@H](C)[C@@H](O[C@@H]2O[C@H](C)C[C@H](N(C)C)[C@H]2O)[C@](C)(O)C[C@@H](C)CN(CCCN(CCC#N)C(=O)Nc2ccc(Cl)cc2Cl)[C@H](C)[C@@H](O)[C@]1(C)O [Compound 33]
0.0768,0.0541,0.228,,,,CC[C@H]1OC(=O)[C@H](C)[C@@H](O[C@H]2C[C@@](C)(OC)[C@@H](O)[C@H](C)O2)[C@H](C)[C@@H](O[C@@H]2O[C@H](C)C[C@H](N(C)C)[C@H]2O)[C@](C)(O)C[C@@H](C)CN(CCCNC(=S)N(CCC#N)CCCc2ccccc2)[C@H](C)[C@@H](O)[C@]1(C)O [Compound 4]
,0.157,0.192,,,,CC[C@H]1OC(=O)[C@H](C)[C@@H](O)[C@H](C)[C@@H](O[C@@H]2O[C@H](C)C[C@H](N(C)C)[C@H]2O)[C@](C)(O)C[C@@H](C)CN(CCCN(CCC#N)C(=S)NCCc2ccccc2)[C@H](C)[C@@H](O)[C@]1(C)O [Compound 31]
> 1.76,1.53,> 0.797,,,,CC[C@H]1OC(=O)[C@H](C)[C@@H](O[C@H]2C[C@@](C)(OC)[C@@H](O)[C@H](C)O2)[C@H](C)[C@@H](O[C@@H]2O[C@H](C)C[C@H](N(C)C)[C@H]2O)[C@](C)(O)C[C@@H](C)CN(CCCNC(=O)NS(=O)(=O)c2ccccc2Cl)[C@H](C)[C@@H](O)[C@]1(C)O [Compound 22]
0.176,0.143,0.268,,,,CC[C@H]1OC(=O)[C@H](C)[C@@H](O[C@H]2C[C@@](C)(O)[C@@H](O)[C@H](C)O2)[C@H](C)[C@@H](O[C@@H]2O[C@H](C)C[C@H](N(C)C)[C@H]2O)[C@](C)(O)C[C@@H](C)CN(CCCNC(=O)Nc2cccc3ccccc23)[C@H](C)[C@@H](O)[C@]1(C)O [Compound 8]
,0.191,0.203,,,,CC[C@H]1OC(=O)[C@H](C)[C@@H](O)[C@H](C)[C@@H](O[C@@H]2O[C@H](C)C[C@H](N(C)C)[C@H]2O)[C@](C)(O)C[C@@H](C)CN(CCCN(CCC#N)C(=O)Nc2ccc3ccccc3c2)[C@H](C)[C@@H](O)[C@]1(C)O [Compound 34]
